Laboratory results published in PubChem BioAssay AID1963426 (Molecular Pharmacology Branch, DTP, NCI, 2024).
pIC50: −log10 of the molar value.

System: 186277-243-T-J2-PDC complex spheroid growth, % test/control
Assay: Anticancer human tumor 186277-243-T-J2-PDC patient-derived colon adenocarcinoma cell line growth inhibition [Asc]
Settings: for pIC50: curve of first compound; for viability, T/C: stronger effect = lower value
In short: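 Complex solid-tumor spheroids incorporating human endothelial and mesenchymal stem cells received single agents or combinations over half-log dilution ranges anchored to clinical Cmax.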
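Further: spheroids exposed to agents for 7 days.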
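Wherever viability, T/C is given: 100% = DMSO vehicle control wells.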

SMILES: O=C(c1cc(Cc2n[nH]c(=O)c3ccccc23)ccc1F)N1CCN(C(=O)C2CC2)CC1 + CCN1C(C(=O)NC23CCC(C(=O)O)(CC2)CC3)C(c2cccc(Cl)c2F)C2(C(=O)Nc3cc(Cl)ccc32)C12CCCCC2
- pIC50 (second compound 0.03 µM): < 5.00
- pIC50 (second compound 0.0949 µM): < 5.00
- pIC50 (second compound 0.3 µM): < 5.00
- pIC50 (second compound 0.949 µM): 6.22
- pIC50 (second compound 3 µM): > 7.50
- viability, T/C (second compound 0.03 µM, first compound 0.0316 µM): 120%
- viability, T/C (second compound 0.03 µM, first compound 0.1 µM): 135%
- viability, T/C (second compound 0.03 µM, first compound 0.316 µM): 102%
- viability, T/C (second compound 0.03 µM, first compound 1 µM): 99%
- viability, T/C (second compound 0.03 µM, first compound 3.16 µM): 94.2%
- viability, T/C (second compound 0.03 µM, first compound 10 µM): 82.4%
- viability, T/C (second compound 0.0949 µM, first compound 0.0316 µM): 90%
- viability, T/C (second compound 0.0949 µM, first compound 0.1 µM): 95.1%
- viability, T/C (second compound 0.0949 µM, first compound 0.316 µM): 93.9%
- viability, T/C (second compound 0.0949 µM, first compound 1 µM): 85.6%
- viability, T/C (second compound 0.0949 µM, first compound 3.16 µM): 91.6%
- viability, T/C (second compound 0.0949 µM, first compound 10 µM): 79.4%
- viability, T/C (second compound 0.3 µM, first compound 0.0316 µM): 77.8%
- viability, T/C (second compound 0.3 µM, first compound 0.1 µM): 90.8%
- viability, T/C (second compound 0.3 µM, first compound 0.316 µM): 72.1%
- viability, T/C (second compound 0.3 µM, first compound 1 µM): 67.2%
- viability, T/C (second compound 0.3 µM, first compound 3.16 µM): 62.1%
- viability, T/C (second compound 0.3 µM, first compound 10 µM): 60.8%
- viability, T/C (second compound 0.949 µM, first compound 0.0316 µM): 54.3%
- viability, T/C (second compound 0.949 µM, first compound 0.1 µM): 51.7%
- viability, T/C (second compound 0.949 µM, first compound 0.316 µM): 54.6%
- viability, T/C (second compound 0.949 µM, first compound 1 µM): 45.7%
- viability, T/C (second compound 0.949 µM, first compound 3.16 µM): 47%
- viability, T/C (second compound 0.949 µM, first compound 10 µM): 40.9%
- viability, T/C (second compound 3 µM, first compound 0.0316 µM): 31.8%
- viability, T/C (second compound 3 µM, first compound 0.1 µM): 33.5%
- viability, T/C (second compound 3 µM, first compound 0.316 µM): 29.9%
- viability, T/C (second compound 3 µM, first compound 1 µM): 32.4%
- viability, T/C (second compound 3 µM, first compound 3.16 µM): 30.2%
- viability, T/C (second compound 3 µM, first compound 10 µM): 26.5%

SMILES: C=C(F)C(=O)N1CCN(c2nc(OCC3CCCN3C)nc3c2CCN(c2cccc4cccc(Cl)c24)C3)CC1CC#N (stereo not given) + CNC(C)C(=O)NC1CN(S(=O)(=O)c2cccc(S(=O)(=O)N3CCC4CCC(C(=O)NC(c5ccccc5)c5ccccc5)N4C(=O)C(NC(=O)C(C)NC)C3)c2)CCC2CCC(C(=O)NC(c3ccccc3)c3ccccc3)N2C1=O
- pIC50 (second compound 0.01 µM): 5.09
- pIC50 (second compound 0.0316 µM): 5.14
- pIC50 (second compound 0.1 µM): 5.18
- pIC50 (second compound 0.316 µM): 5.16
- pIC50 (second compound 1 µM): 5.20
- viability, T/C (second compound 0.01 µM, first compound 0.0316 µM): 133%
- viability, T/C (second compound 0.01 µM, first compound 0.1 µM): 122%
- viability, T/C (second compound 0.01 µM, first compound 0.316 µM): 117%
- viability, T/C (second compound 0.01 µM, first compound 1 µM): 112%
- viability, T/C (second compound 0.01 µM, first compound 3.16 µM): 121%
- viability, T/C (second compound 0.01 µM, first compound 10 µM): 33.9%
- viability, T/C (second compound 0.0316 µM, first compound 0.0316 µM): 108%
- viability, T/C (second compound 0.0316 µM, first compound 0.1 µM): 109%
- viability, T/C (second compound 0.0316 µM, first compound 0.316 µM): 99.2%
- viability, T/C (second compound 0.0316 µM, first compound 1 µM): 102%
- viability, T/C (second compound 0.0316 µM, first compound 3.16 µM): 117%
- viability, T/C (second compound 0.0316 µM, first compound 10 µM): 28.2%
- viability, T/C (second compound 0.1 µM, first compound 0.0316 µM): 108%
- viability, T/C (second compound 0.1 µM, first compound 0.1 µM): 109%
- viability, T/C (second compound 0.1 µM, first compound 0.316 µM): 120%
- viability, T/C (second compound 0.1 µM, first compound 1 µM): 119%
- viability, T/C (second compound 0.1 µM, first compound 3.16 µM): 131%
- viability, T/C (second compound 0.1 µM, first compound 10 µM): 13.1%
- viability, T/C (second compound 0.316 µM, first compound 0.0316 µM): 127%
- viability, T/C (second compound 0.316 µM, first compound 0.1 µM): 120%
- viability, T/C (second compound 0.316 µM, first compound 0.316 µM): 104%
- viability, T/C (second compound 0.316 µM, first compound 1 µM): 118%
- viability, T/C (second compound 0.316 µM, first compound 3.16 µM): 132%
- viability, T/C (second compound 0.316 µM, first compound 10 µM): 15.8%
- viability, T/C (second compound 1 µM, first compound 0.0316 µM): 113%
- viability, T/C (second compound 1 µM, first compound 0.1 µM): 102%
- viability, T/C (second compound 1 µM, first compound 0.316 µM): 117%
- viability, T/C (second compound 1 µM, first compound 1 µM): 108%
- viability, T/C (second compound 1 µM, first compound 3.16 µM): 118%
- viability, T/C (second compound 1 µM, first compound 10 µM): 7.88%

SMILES: Cc1nc(N2CCC3(CC2)COC(C)C3N)c(CO)nc1Sc1ccnc(N)c1Cl (stereo not given) + CCN1C(C(=O)NC23CCC(C(=O)O)(CC2)CC3)C(c2cccc(Cl)c2F)C2(C(=O)Nc3cc(Cl)ccc32)C12CCCCC2
- pIC50 (second compound 0.03 µM): < 5.52
- pIC50 (second compound 0.0949 µM): < 5.52
- pIC50 (second compound 0.3 µM): 6.54
- pIC50 (second compound 0.949 µM): > 8.02
- pIC50 (second compound 3 µM): > 8.02
- viability, T/C (second compound 0.03 µM, first compound 0.00949 µM): 122%
- viability, T/C (second compound 0.03 µM, first compound 0.03 µM): 127%
- viability, T/C (second compound 0.03 µM, first compound 0.0949 µM): 105%
- viability, T/C (second compound 0.03 µM, first compound 0.3 µM): 113%
- viability, T/C (second compound 0.03 µM, first compound 0.949 µM): 90.9%
- viability, T/C (second compound 0.03 µM, first compound 3 µM): 90.7%
- viability, T/C (second compound 0.0949 µM, first compound 0.00949 µM): 95.1%
- viability, T/C (second compound 0.0949 µM, first compound 0.03 µM): 89.2%
- viability, T/C (second compound 0.0949 µM, first compound 0.0949 µM): 84.5%
- viability, T/C (second compound 0.0949 µM, first compound 0.3 µM): 84.5%
- viability, T/C (second compound 0.0949 µM, first compound 0.949 µM): 71.9%
- viability, T/C (second compound 0.0949 µM, first compound 3 µM): 57.8%
- viability, T/C (second compound 0.3 µM, first compound 0.00949 µM): 63.2%
- viability, T/C (second compound 0.3 µM, first compound 0.03 µM): 67.2%
- viability, T/C (second compound 0.3 µM, first compound 0.0949 µM): 57.3%
- viability, T/C (second compound 0.3 µM, first compound 0.3 µM): 48.6%
- viability, T/C (second compound 0.3 µM, first compound 0.949 µM): 39.6%
- viability, T/C (second compound 0.3 µM, first compound 3 µM): 28.3%
- viability, T/C (second compound 0.949 µM, first compound 0.00949 µM): 45.9%
- viability, T/C (second compound 0.949 µM, first compound 0.03 µM): 43.6%
- viability, T/C (second compound 0.949 µM, first compound 0.0949 µM): 40.8%
- viability, T/C (second compound 0.949 µM, first compound 0.3 µM): 33.1%
- viability, T/C (second compound 0.949 µM, first compound 0.949 µM): 26.1%
- viability, T/C (second compound 0.949 µM, first compound 3 µM): 19.1%
- viability, T/C (second compound 3 µM, first compound 0.00949 µM): 26.8%
- viability, T/C (second compound 3 µM, first compound 0.03 µM): 27.6%
- viability, T/C (second compound 3 µM, first compound 0.0949 µM): 22.1%
- viability, T/C (second compound 3 µM, first compound 0.3 µM): 19.4%
- viability, T/C (second compound 3 µM, first compound 0.949 µM): 11.4%
- viability, T/C (second compound 3 µM, first compound 3 µM): 9.13%
